Data taken from patent US20100029643A1 (ASTRAZENECA AB, priority 2006, published 2010).

Biological target: T1, Edg-1/S1P1 receptor (Homo sapiens, UniProt P21453)
T1 construct: expressed in transfected cells; host or cells: human osteogenic sarcoma U2OS cells: Edg-1 Transfluor U2OS WT Clone #37 (assay I), Edg-1 Transfluor U2OS Clone #3 (assay II)
Assay: In vitro cell based receptor activation assay - Transfluor assay (assay I or II; beta-arrestin GFP relocalization after S1P stimulation)
Settings: at 1 μM (titrated with 3.50 μM as top concentration)
In short: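 U2OS cells overexpressing S1P1 with a beta-arrestin-GFP construct were pre-incubated with compound for 15 min at room temperature, then stimulated with S1P for 45 min at 37 °C. In assay I, final S1P was 375 nM or 750 nM and compound was a 9-point 3-fold series from 100 μM, in 1% DMSO. Cells were fixed and Hoechst-stained, GFP relocalization was imaged, and EC50 values were fitted.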

T1 sequence (P21453 whole entry): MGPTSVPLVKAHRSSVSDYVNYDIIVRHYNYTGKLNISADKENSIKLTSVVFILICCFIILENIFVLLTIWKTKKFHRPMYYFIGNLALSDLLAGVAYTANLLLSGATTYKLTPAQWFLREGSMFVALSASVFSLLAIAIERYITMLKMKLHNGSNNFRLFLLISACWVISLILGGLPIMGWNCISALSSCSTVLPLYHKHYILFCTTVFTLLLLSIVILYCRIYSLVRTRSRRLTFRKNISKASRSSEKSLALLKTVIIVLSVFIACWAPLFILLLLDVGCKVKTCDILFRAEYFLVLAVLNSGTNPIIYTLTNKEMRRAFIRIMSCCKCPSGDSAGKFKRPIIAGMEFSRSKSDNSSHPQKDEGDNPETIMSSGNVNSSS

inhibition at 1 µM	Compound
91.8%	CCn1c([C@@H](C)NS(=O)(=O)c2ccc(Cl)cc2)nc2cc(F)c(F)c(F)c21 [Example 91, (R)-4-Chloro-N-[1-(1-ethyl-5,6,7-trifluoro-1H-benzoimidazol-2-yl)-ethyl]-benzenesulfonamide]

Same assay, conditions: at 3.50 μM (titrated from top concentration 10 μM)

inhibition at 3.5 µM	Compound
85.2%	CCn1c([C@@H](C)NS(=O)(=O)c2ccc(Cl)cc2)nc2ccc(C(F)F)cc21 [Example 69, 4-Chloro-N-{(1R)-1-[6-(difluoromethyl)-1-ethyl-1H-benzimidazol-2-yl]ethyl}benzenesulfonamide]
90.7%	CCn1c([C@@H](C)NS(=O)(=O)c2ccc(Cl)cc2)nc2ccc(C)cc21 [Example 89, 4-Chloro-N-[(1R)-1-(1-ethyl-6-methyl-1H-benzimidazol-2-yl)ethyl]benzenesulfonamide]
93.4%	CCn1c([C@@H](C)NS(=O)(=O)c2ccc(Cl)cc2)nc2c(F)cccc21 [Example 90, 4-Chloro-N-[(1R)-1-(1-ethyl-4-fluoro-1H-benzimidazol-2-yl)ethyl]benzenesulfonamide]
86.1%	CCn1c([C@@H](C)NS(=O)(=O)c2ccc(Cl)cc2)nc2cc(C(F)(F)F)ccc21 [Example 92, 4-Chloro-N-{(1R)-1-[1-ethyl-5-(trifluoromethyl)-1H-benzimidazol-2-yl]ethyl}benzenesulfonamide]
47.7%	CCn1c(C(C)NS(=O)(=O)c2ccc(Cl)cc2)nc2c(OC)nccc21 (centres unmarked) [Example 95, 4-chloro-N-[1-(1-ethyl-4-methoxy-1H-imidazo[4,5-c]pyridin-2-yl)ethyl]benzenesulfonamide]
88.2%	CCn1c([C@@H](C)NS(=O)(=O)c2ccc(Cl)cc2)nc2cnc(C3CC3)cc21 [Example 98, 4-Chloro-N-[(1R)-1-(6-cyclopropyl-1-ethyl-1H-imidazo[4,5-c]pyridin-2-yl)ethyl]benzenesulfonamide]
84.6%	CCn1c([C@H](C)NS(=O)(=O)c2ccc(Cl)cc2)nc2ccc(C(F)(F)F)cc21 [Example 100, 4-Chloro-N-{(1S)-1-[1-ethyl-6-(trifluoromethyl)-1H-benzimidazol-2-yl]ethyl}benzenesulfonamide]
93.8%	CCn1c([C@@H](C)NS(=O)(=O)c2ccc(Cl)cc2)nc2cnccc21 [Example 102, 4-Chloro-N-[(1R)-1-(1-ethyl-1H-imidazo[4,5-c]pyridin-2-yl)ethyl]benzenesulfonamide]
89.4%	CCn1c([C@@H](C)NS(=O)(=O)c2ccc(C#N)cc2)nc2cnccc21 [Example 103, 4-Cyano-N-[(1R)-1-(1-ethyl-1H-imidazol[4,5-c]pyridin-2-yl)ethyl]benzenesulfonamide]
90.3%	CCn1c([C@@H](C)NS(=O)(=O)c2ccc(F)cc2)nc2cnccc21 [Example 104, 4-Fluoro-N-[(1R)-1-(1-ethyl-1H-imidazo[4,5-c]pyridin-2-yl)ethyl]benzenesulfonamide]
93.1%	CCn1c([C@@H](C)NS(=O)(=O)c2ccc(C#N)nc2)nc2ccc(C(F)(F)F)cc21 [Example 105, (R)-6-Cyano-N-(1-(1-ethyl-6-(trifluoromethyl)-1H-benzo[d]imidazol-2-yl)ethyl) pyridine-3-sulfonamide]
93.3%	CCn1c([C@@H](C)NS(=O)(=O)c2ccc(C(N)=O)nc2)nc2ccc(C(F)(F)F)cc21 [Example 106, (R)-5-(N-(1-(1-Ethyl-6-(trifluoromethyl)-1H-benzo[d]imidazol-2-yl)ethyl)sulfamoyl)picolinamide]
92.5%	CCn1c([C@@H](C)NS(=O)(=O)c2ccc(F)nc2)nc2ccc(C(F)(F)F)cc21 [Example 107, (R)-N-(1-(1-Ethyl-6-(trifluoromethyl)-1H-benzo[d]imidazol-2-yl)ethyl)-6-fluoropyridine-3-sulfonamide]
91.8%	CCn1c([C@@H](C)NS(=O)(=O)c2ccc(C)nc2)nc2ccc(C(F)(F)F)cc21 [Example 108, (R)-N-(1-(1-Ethyl-6-(trifluoromethyl)-1H-benzo[d]imidazol-2-yl)ethyl)-6-methylpyridine-3-sulfonamide]
95.6%	CCn1c([C@@H](C)NS(=O)(=O)c2ccc(OC)nc2)nc2ccc(C(F)(F)F)cc21 [Example 109, (R)-N-(1-(1-Ethyl-6-(trifluoromethyl)-1H-benzo[d]imidazol-2-yl)ethyl)-6-methoxypyridine-3-sulfonamide]

Same assay, conditions: at 3.55 μM

inhibition at 3.55 µM	Compound
82.6%	CCn1c([C@@H](C)NS(=O)(=O)c2ccc(Cl)cc2)nc2ncc(C(F)(F)F)cc21 [Example 88, 4-Chloro-N-{(1R)-1-[1-ethyl-6-(trifluoromethyl)-1H-imidazo[4,5-b]pyridin-2-yl]ethyl}benzenesulfonamide]

Same assay, conditions: at 3.70 μM (titrated from top concentration 100 μM)

inhibition at 3.7 µM	Compound
84.2%	CCn1c([C@@H](C)NS(=O)(=O)c2ccc(Cl)cc2)nc2ccc(F)c(F)c21 [Example 65, 4-Chloro-N-[(1R)-1-(1-ethyl-6,7-difluoro-1H-benzimidazol-2-yl)ethyl]benzenesulfonamide]
94.6%	CCn1c([C@@H](C)NS(=O)(=O)c2ccc(Cl)cc2)nc2cccc(C)c21 [Example 66, 4-Chloro-N-[(1R)-1-(1-ethyl-7-methyl-1H-benzimidazol-2-yl)ethyl]benzenesulfonamide]
77.3%	CCn1c([C@@H](C)NS(=O)(=O)c2ccc(Cl)cc2)nc2ccc(C(N)=O)cc21 [Example 71, 2-(1-{[(4-Chlorophenyl)sulfonyl]amino}-ethyl)-1-ethyl-1H-benz-imidazole-6-carboxamide]
30.4%	CCn1c([C@@H](C)NS(=O)(=O)c2ccc(Cl)cc2)nc2ccc(CN(C)C)cc21 [Example 74, 4-Chloro-N-((1R)-1-{6-[(dimethylamino)methyl]-1-ethyl-1H-benzimidazol-2-yl}ethyl)benzenesulfonamide]
37.2%	CCn1c([C@@H](C)NS(=O)(=O)c2ccc(Cl)cc2)nc2ccc(CN3CCOCC3)cc21 [Example 75, 4-Chloro-N-{(1R)-1-[1-ethyl-6-(morpholin-4-ylmethyl)-1H-benzimidazol-2-yl]ethyl}benzenesulfonamide]
58.4%	CCn1c([C@@H](C)NS(=O)(=O)c2ccc(Cl)cc2)nc2cc(CO)ccc21 [Example 78, 4-Chloro-N-{(1R)-1-[1-ethyl-5-(hydroxymethyl)-1H-benzimidazol-2-yl]ethyl}benzenesulfonamide]
91.6%	CCn1c([C@@H](C)NS(=O)(=O)c2ccc(Cl)cc2)nc2cc(Br)ccc21 [Example 81, N-[(1R)-1-(5-Bromo-1-ethyl-1H-benzimidazol-2-yl)ethyl]-4-chlorobenzenesulfonamide]
10.3%	CCn1c([C@@H](C)NS(=O)(=O)c2ccc(Cl)cc2)nc2cc(-c3cccnc3)ccc21 [Example 82, 4-Chloro-N-[(1R)-1-(1-ethyl-5-pyridin-3-yl-1H-benzimidazol-2-yl)ethyl]benzenesulfonamide]
16.4%	CCn1c([C@@H](C)NS(=O)(=O)c2ccc(Cl)cc2)nc2cc(-c3ccncc3)ccc21 [Example 83, 4-Chloro-N-[(1R)-1-(1-ethyl-5-pyridin-4-yl-1H-benzimidazol-2-yl)ethyl]benzenesulfonamide]
59.3%	CCn1c([C@@H](C)NS(=O)(=O)c2ccc(Cl)cc2)nc2cc(C3CC3)ccc21 [Example 84, 4-Chloro-N-[(1R)-1-(5-cyclopropyl-1-ethyl-1H-benzimidazol-2-yl)ethyl]benzenesulfonamide]
44.9%	CCn1c([C@@H](C)NS(=O)(=O)c2ccc(Cl)cc2)nc2cc(C(F)(F)F)c(Cl)cc21 [Example 85, 4-Chloro-N-{(1R)-1-[6chloro-1-ethyl-5-(trifluoromethyl)-1H-benzimidazol-2-yl]ethyl}benzenesulfonamide]
51.7%	CCn1c([C@@H](C)NS(=O)(=O)c2ccc(Cl)cc2)nc2cccc(Cl)c21 [Example 86, (R)-4-Chloro-N-[1-(7-chloro-1-ethyl-1H-benzoimidazol-2-yl)ethyl]-benzenesulfonamide]
62.4%	CCn1c([C@@H](C)NS(=O)(=O)c2ccc(Cl)cc2)nc2nnc(Cl)cc21 [Example 87, 4-Chloro-N-[(1R)-1-(3-chloro-5-ethyl-5H-imidazo[4,5-c]pyridazin-6-yl)ethyl]benzenesulfonamide]
62.3%	CCn1c([C@@H](C)NS(=O)(=O)c2ccc(Cl)cc2)nc2cc(Br)c(C(F)(F)F)cc21 [Example 93, N-{(1R)-1-[5-Bromo-1-ethyl-6-(trifluoromethyl)-1H-benzimidazol-2-yl]ethyl}-4-chlorobenzenesulfonamide]
91.6%	CCn1c(C(C)NS(=O)(=O)c2ccc(Cl)cc2)nc2c(Cl)nccc21 (centres unmarked) [Example 94, 4-Chloro-N-[1-(4-chloro-1-ethyl-1H-imidazo[4,5-c]pyridin-2-yl)ethyl]benzenesulfonamide]
81.7%	CCn1c(C(C)NS(=O)(=O)c2ccc(Cl)cc2)nc2cnc(C(F)(F)F)nc21 (centres unmarked) [Example 96, 4-chloro-N-{1-[9-ethyl-2-(trifluoromethyl)-9H-purin-8-yl]ethyl}benzenesulfonamide]
88.9%	CCn1c([C@@H](C)NS(=O)(=O)c2ccc(Cl)cc2)nc2cnc(Cl)cc21 [Example 97, 4-chloro-N-[(1R)-1-(6-chloro-1-ethyl-1H-imidazo[4,5-c]pyridin-2-yl)ethyl]benzenesulfonamide]
94.5%	CCn1c(C(C)NS(=O)(=O)c2ccc(Cl)cc2)nc2ccc(C(F)(F)F)cc21 (centres unmarked) [Example 99, 4-Chloro-N-{1-[1-ethyl-6-(trifluoromethyl)-1H-benzimidazol-2-yl]ethyl}benzenesulfonamide]
